Molecules are shown by their SMILES.

Holding throughout (format): functional
Assay [1] concerns Tetranychus urticae. The assay can be described thus: Acaricidal activity against Tetranychus urticae (two-spotted spider mite) assessed as mite mortality at 500 ppm relative to untreated control.
The test system of assay [2] is Tetranychus urticae. The assay can be described thus: Acaricidal activity against Tetranychus urticae (two-spotted spider mite) assessed as mite mortality at 12.5 ppm relative to untreated control.
The test system of assay [3] is Tetranychus urticae. The assay can be described thus: Acaricidal activity against Tetranychus urticae (two-spotted spider mite) assessed as mite mortality at 200 ppm relative to untreated control.
Assay [4] deals with Tetranychus urticae. The assay can be described thus: Acaricidal activity against Tetranychus urticae (two-spotted spider mite) assessed as mite mortality at 50 ppm relative to untreated control.
For assay [5], the system named is Tetranychus urticae. The assay can be described thus: Acaricidal activity against Tetranychus urticae (two-spotted spider mite) assessed as mite mortality at 3.13 ppm relative to untreated control.

As to `CCc1nnc(NC(=O)C(Br)C(C)(C)C)s1` (stereo not given), the mortality at 500 ppm in assay [1] was determined as 0%.
For `CC(C)(C)C(Br)C(=O)Nc1nnc(C(F)(F)C(F)(F)C(F)(F)C(F)(F)C(F)(F)F)s1` (stereo not given), the mortality at 500 ppm in assay [1] is 0%.
Turning to `CCCCCC(Br)C(=O)Nc1nnc(C(F)(F)F)s1` (stereo not given), the mortality at 12.5 ppm in assay [2] was determined as 0%. In assay [3], the mortality at 200 ppm was determined as 80%. Moreover, the mortality at 50 ppm in assay [4] was 30%. The mortality at 500 ppm in assay [1] was found to be 80%.
Take `CC(C)(C)C(Cl)C(=O)Nc1nnc(C(F)(F)F)s1` (stereo not given): the mortality at 12.5 ppm in assay [2] came out at 30%. In assay [3], the mortality at 200 ppm is 100%. Further, the mortality at 50 ppm in assay [4] is 100%. Further, the mortality at 500 ppm in assay [1] is 100%.
Regarding `CC(CC(Br)C(=O)Nc1nnc(C(F)(F)F)s1)C1CCCCC1` (stereo not given), the mortality at 200 ppm in assay [3] came to 0%. Moreover, the mortality at 500 ppm in assay [1] was 30%.
For `O=C(CBr)Nc1nnc(C(F)(F)F)s1`, the mortality at 500 ppm in assay [1] was found to be 0%.
Take `CC(C)CC(Br)C(=O)Nc1nnc(C(F)(F)F)s1` (stereo not given): the mortality at 500 ppm in assay [1] was determined as 0%.
For the molecule `CC(Br)C(=O)Nc1nnc(C(F)(F)F)s1` (stereo not given), the mortality at 500 ppm in assay [1] amounted to 0%.
On the same count and under the same terms, the figure for `Cc1nnc(NC(=O)C(Br)C(C)(C)C)s1` (stereo not given) is 0%.
For `CCC(C)C(Br)C(=O)Nc1nnc(C(F)(F)F)s1` (stereo not given), the mortality at 12.5 ppm in assay [2] is 30%. The mortality at 200 ppm in assay [3] stood at 100%. Moreover, the mortality at 50 ppm in assay [4] is 80%. The mortality at 500 ppm in assay [1] was 100%.
With `CC(C)(C)C(Br)(Br)C(=O)Nc1nnc(C(F)(F)F)s1`, the mortality at 12.5 ppm in assay [2] was 30%. The mortality at 200 ppm in assay [3] amounted to 100%. In addition, in assay [4], the mortality at 50 ppm is 100%. For the same molecule, in assay [1], the mortality at 500 ppm stood at 100%.
Take `CC(C)(C)C(Br)C(=O)Nc1nnc(C(F)(F)C(F)(F)F)s1` (stereo not given): in assay [2], the mortality at 12.5 ppm came out at 30%. Further, the mortality at 200 ppm in assay [3] is 80%. Besides, in assay [4], the mortality at 50 ppm was found to be 80%. Besides, the mortality at 500 ppm in assay [1] came out at 100%.
In the case of `CCCCC(Br)C(=O)Nc1nnc(C(F)(F)F)s1` (stereo not given), in assay [1], the mortality at 500 ppm was 0%.
On to `CC(C)(C)C(Br)C(=O)Nc1nncs1` (stereo not given), for which, in assay [1], the mortality at 500 ppm was 0%.
`CC(C)(C)C(Br)(Br)C(=O)Nc1nnc(C(F)(F)C(F)(F)C(F)(F)C(F)(F)F)s1`: in assay [2], the mortality at 12.5 ppm came to 30%. The mortality at 200 ppm in assay [3] was 100%. In addition, the mortality at 50 ppm in assay [4] worked out at 100%. Moreover, the mortality at 500 ppm in assay [1] came to 100%.
Consider `CC(C)(C)C(Br)C(=O)Nc1nnc(C(F)(F)F)s1` (stereo not given), for which, in assay [2], the mortality at 12.5 ppm is 30%. Moreover, the mortality at 200 ppm in assay [3] came to 100%. Besides, the mortality at 50 ppm in assay [4] is 100%. In addition, in assay [1], the mortality at 500 ppm was determined as 100%.
`CC(C)(C)CC(=O)Nc1nnc(C(F)(F)F)s1`: the mortality at 500 ppm in assay [1] worked out at 0%.
Regarding `CCCC(Br)C(=O)Nc1nnc(C(F)(F)F)s1` (stereo not given), the mortality at 200 ppm in assay [3] stood at 0%. For the same molecule, in assay [1], the mortality at 500 ppm was determined as 30%.
Regarding `CC(C)(C)C(Br)(Br)C(=O)Nc1nnc(C(F)(F)C(F)(F)F)s1`, in assay [2], the mortality at 12.5 ppm was 80%. Further, the mortality at 200 ppm in assay [3] was 100%. In addition, the mortality at 3.13 ppm in assay [5] was found to be 30%. Besides, the mortality at 50 ppm in assay [4] was 100%. Moreover, the mortality at 500 ppm in assay [1] was found to be 100%.
As for `CC(C)C(Br)C(=O)Nc1nnc(C(F)(F)F)s1` (stereo not given), the mortality at 200 ppm in assay [3] worked out at 30%. The mortality at 500 ppm in assay [1] stood at 100%.
For `CC(C)(C)C(Br)C(=O)Nc1nnc(C(F)(F)C(F)(F)C(F)(F)C(F)(F)F)s1` (stereo not given), the mortality at 500 ppm in assay [1] was 0%.
`O=C(Nc1nnc(C(F)(F)F)s1)C(Br)C1CCCC1` (stereo not given): the mortality at 200 ppm in assay [3] was determined as 0%. Moreover, the mortality at 500 ppm in assay [1] was 30%.
Regarding `CC(C)(C)C(Br)C(=O)Nc1nnc(C(F)(F)C(F)(F)C(F)(F)F)s1` (stereo not given), in assay [2], the mortality at 12.5 ppm was 30%. Also, in assay [3], the mortality at 200 ppm is 30%. Moreover, the mortality at 50 ppm in assay [4] turned out to be 30%. The mortality at 500 ppm in assay [1] turned out to be 80%.
`CC(C)(C)C(Br)(Br)C(=O)Nc1nnc(C(F)(F)C(F)(F)C(F)(F)F)s1`: the mortality at 12.5 ppm in assay [2] was 0%. Also, the mortality at 200 ppm in assay [3] turned out to be 100%. Besides, the mortality at 50 ppm in assay [4] came out at 80%. For the same molecule, the mortality at 500 ppm in assay [1] worked out at 100%.
As for `CCC(Br)C(=O)Nc1nnc(C(F)(F)F)s1` (stereo not given), in assay [1], the mortality at 500 ppm was found to be 0%.

As usually defined, the mortality is the share of the test organisms that died.
